Where two headings read alike, the source gives them in different places.
Columns and labels:
[1] = system: blood-brain barrier; experiment: Blood-to-brain transport, in vivo multiple time regression (MTR) analysis; conditions: mice
Procedure: Female, Institute for Cancer Research, Caesarean Derived-1 (ICR-CD-1) mice (Harlan Laboratories, Venray, Netherlands) of age 7–10 weeks and weighing 29–32 g, were used during the BBB transport experiments.
An in vivo multiple time regression (MTR) analysis was performed to investigate if spilanthol was able to cross the BBB. A dose solution of spilanthol was prepared using the Spilanthes acmella (L.) L. extract (Robertet) with a final concentration of 4 mg/ml spilanthol dissolved in 7.0 % ethanol, 2.5 % dimethylacetamide, 0.6 % tween 80 (all w/w) diluted in lactated Ringer’s solution containing 1 % BSA. The ICR-CD-1 mice were anesthetized by intraperitoneal injection with a 40 % (w/V) urethane solution (3 g/kg) and the jugular internalis vein and carotid artery were isolated, 20 μl of the spilanthol dose solution was injected into the jugular vein. Blood was obtained from the carotid artery at regular time points after injection (1, 3, 5, 10, 12.5 and 15 min, with start and end in duplicate), and the mice were immediately thereafter decapitated. After sacrificing the mice, the brains were collected. The collected blood from the carotid artery was centrifuged at 10 000 g for 15 min at 21 °C, resulting in serum. […]

[2] = Pharmacokinetic oral gavage experiment in rats (serum spilanthol, one compartmental model); assay type: in vivo, Wistar rats; conditions: for half-life: 1.5 ml of 0.73 mg spilanthol/g dose solution, read-out: elimination half-life (converted)
Procedure: The Wistar rats were bred in Bharat Serum and Vaccines pvt. Ltd, Thane, India (registration number 103/99/CPCSEA) and kept for the experiments at C. U. Shah College of Pharmacy, SNDT Women’s University, Santacruz, Mumbai, India (registration number 39/99/CPCSEA). The half of the rats used in the experiment were female rats and the other half male rats. Rats of 7-8 weeks old, weighing 220 g, and fasted overnight were used for the experiment.
The pharmacokinetic oral gavage experiment was carried out at C. U. Shah College of Pharmacy, SNDT Women’s University, Santacruz, Mumbai, India. A spilanthol dose solution was prepared with the Spilanthes acmella (L.) L. extract (A.Vogel). 1.5 ml of a spilanthol dose solution of 0.73 mg spilanthol/g dose solution in 10:20:30:40 (w/w/w/w) ethanol:PG:vitamin E-TPGS:PEG400 was administered to the rats using a gavage needle made up of stainless steel (length 3 inches and 2.5 mm internal diameter). A blank dose solution was used as well, containing ethanol, PG, vitamin E-TPGS and PEG without spilanthol. For each dose solution, six rats were used of which three were females and three males. Blood was collected (1.5 ml) from the retro orbital vein at specified time points i.e. 1, 2, 3, 4, 6, and 8 h after oral administration of the dose solution. The collected blood samples were centrifuged using a Remi R-24 centrifuge. At the end of the study, the animals were sacrificed by CO2 inhalation. All samples were immediately frozen at -80 °C until bio-analysis. The elimination rate constant was calculated using a one compartmental model using GraphPad software (La Jolla, USA), using the following equation: Ct=C0×e^−ke×t , in which t is time (h), C0 the concentration of spilanthol at time t = 0 (ng/ml), C(t) the concentration of spilanthol at time t and ke the elimination rate constant (h^−1). The elimination half-life (h) is computed as ln(2)/ke.
60 μl of the serum samples, 60 μl of 4 % (V/V) aqueous H3PO4 solution and 30 μl of the IS solution were transferred into a 0.5 ml (LoBind Eppendorf) tube and vortexed. Interfering compounds were removed by solid phase extraction using a positive pressure-96 processor (Waters). […] After the loading step, the HLB Oasis® μelution plate was washed using 200 μl of 5 % MeOH in H2O followed by 200 μl of 20 % MeOH in H2O. Spilanthol was eluted using two times 25 μl ACN. To the eluate, 25 μl of a 80:20 (V/V) H2O:MeOH solution was added and analysed with a UPLC-MS^2 method, as further described.

[3] = parameters: method as in PMID 20227845, PMID 19808085, PMID 23583736; conditions: porcine buccal mucosa; cited from earlier work

In the case of `C/C=C/C=C\CC/C=C/C(=O)NCC(C)C` [spilanthol, deca-2E,6Z,8E-trienoic acid isobutylamide], the “toxicity during the experiment” value ([1]; i.v. spilanthol dose solution with ethanol, dimethylacetamide, tween 80) is reported as “no toxicity was observed”, the “exposure time at which brain/serum ratio curve reached a plateau-phase” value ([1]; i.v., MTR) is reported as “about 10 min” and the k el ([2]; both sexes, Wistar, rat, serum, po, 0.73 mg, oral gavage of 1.5 ml of 0.73 mg spilanthol/g dose solution (A. Vogel extract), one compartmental model, read-out: elimination rate constant ke (converted)) is reported as 0.000167 s⁻¹. For the same compound, the half-life ([2]; both sexes, Wistar, rat, serum, po, oral gavage (discussion, in brackets)) was 1.05 h, the half-life ([2]; both sexes, Wistar, rat, serum, po, oral gavage, ln(2)/ke) was 1.13 h and the “elimination rate constant ke” value ([2]; rat serum, oral gavage of 1.5 ml of 0.73 mg spilanthol/g dose solution (A. Vogel extract), one compartmental model) was 0.61 h⁻¹. For the same compound, the “permeability coefficient Kp,aq” value [3] was 3.14 ×10⁻⁶ cm/s.
